The target of the assay is 5-hydroxytryptamine receptor 7 (Homo sapiens, UniProt P34969). Briefly: A similar stock of the reference compound chlorpromazine is also prepared as a positive control. Eleven dilutions (5× assay concentration) of the compound of the disclosure and chlorpromazine are prepared in the Assay Buffer by serial dilution to yield final corresponding assay concentrations ranging from 10 pM to 10 μM.A stock concentration of 5 nM [3H]LSD (lysergic acid diethyl amide) is prepared in 50 mM Tris-HCl, 10 mM MgCl2, 1 mM EDTA, pH 7.4 (Assay Buffer). Aliquots (50 μl) of radioligand are dispensed into the wells of a 96-well plate containing 100 μl of Assay Buffer. Duplicate 50-μl aliquots of the compound of the disclosure test and chlorpromazine positive control reference compound serial dilutions are added.Membrane fractions of cells expressing recombinant 5HT7 receptors (50 μL) are dispensed into each well. […].

Experimental findings from ChEMBL document CHEMBL5726765, “5-hydroxytryptamine receptor 7 activity modulators and their method of use” (2019) are described below.

Broadly, the IC50 is the midpoint of a concentration-inhibition curve.

5-hydroxytryptamine receptor 7, sequence (P34969 whole entry): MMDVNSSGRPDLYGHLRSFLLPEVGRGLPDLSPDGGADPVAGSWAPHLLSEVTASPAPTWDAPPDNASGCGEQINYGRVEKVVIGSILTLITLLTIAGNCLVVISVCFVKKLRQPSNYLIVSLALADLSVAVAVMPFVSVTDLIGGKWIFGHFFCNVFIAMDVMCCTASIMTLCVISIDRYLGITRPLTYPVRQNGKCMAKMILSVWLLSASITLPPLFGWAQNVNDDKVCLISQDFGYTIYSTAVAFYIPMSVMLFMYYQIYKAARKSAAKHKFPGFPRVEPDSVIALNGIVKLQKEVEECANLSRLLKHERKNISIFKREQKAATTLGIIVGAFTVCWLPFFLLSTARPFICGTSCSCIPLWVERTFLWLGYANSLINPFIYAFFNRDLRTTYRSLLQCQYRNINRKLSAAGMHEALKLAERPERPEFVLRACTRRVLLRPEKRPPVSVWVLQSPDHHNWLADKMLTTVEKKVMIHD

Consider `CCC1(CC)CC(CCN2CCC(C(O)(c3ccccc3)c3ccccc3)CC2)OC1=O` (stereo unspecified), for which the IC50 amounted to 3.16 µM.
